Key:
human α7 nAchR = human α7 nAchR (Homo sapiens (Human), UniProt P36544); assay: Human α7 nicotinic acetylcholine receptor [Ca2+]i assay (PAM, Ca2+ fluorometry); format: cell-based; settings: Flp-In 293 cells expressing human α7 nAchR and human RIC-3; in presence of saturating agonist (mostly PNU-282987, 1 μM)
Procedure: Biological Activity Human α7 Nicotinic Acetylcholine Receptor [Ca^2+]i Assay
Cells: Flp-In 293 cells stably expressing human α7 nAchR and human RIC-3 (α7 cells, generated in house.)
Materials: 96-well plates coated with PDL (Falcon), culture medium, assay buffer, DMSO, FLIPR Calcium 5 kit (Molecular Devices), probenecid, agonist and PAM test compounds.
Brief Description of the Method (Ca^2+ Fluorometry)
α7 cells stably expressing human α7 nAchR were cultured in the medium detailed above, and were split twice a week. For the fluorometric measurements of cytosolic Ca^2+ ion concentration ([Ca^2+]i) cells were seeded in 96-well microplates at a density of 60000 cells/well and maintained overnight in a tissue culture incubator at 37° C. under an atmosphere of 95% air/5% CO2. The plating medium was identical with the culture medium. 50 μl of the growth medium was aspirated with a cell washer (BioTek Elx405UCVWS). Then 50 μl/well Calcium 5 kit diluted 2-fold in assay buffer was added manually using an 8-channel pipette. After an incubation period (20 minutes, 37° C.) 50 μl/well assay buffer containing vehicle (DMSO, 4% added) or reference α7 PAMs (4×of the final concentration) were added manually and the cells were incubated for an additional 10 minutes at 37° C. Baseline and agonist-evoked [Ca2+]i-changes were monitored with FlexStation II (Molecular Devices, Sunnyvale, Calif.), a plate reader fluorometer with integrated 8-channel fluid addition capability. Fluorescence measurements were carried out at 37° C. The dye was excited at 485 nm, emission was sampled at 525 nm at 1.4-s intervals. Baseline was recorded for 20 seconds followed by agonist stimulation. 50 μl 4× concentrated agonist solution was added to the cells using the pipettor of FlexStation II and fluorescence was monitored for an additional 40 seconds. Final DMSO concentration was 1% for all treatments. To achieve this, a series of DMSO stock solutions were prepared from all test compounds. These stocks were stored under 0° C. and were further diluted in assay buffer to obtain the desired final concentration immediately before the measurement. Agonist and PAM concentration-response studies were conducted in the presence of saturating concentrations of PAMs (mostly PNU-120596, 5 μM) and agonists (mostly PNU-282987, 1 μM), respectively. Results were expressed as ΔF/F values using SoftMax Pro software (Molecular Devices), where F was the resting fluorescence preceding agonist application and ΔF was the increase in fluorescence at a given time (ΔF=maximum fluorescence intensity values after stimulation minus average fluorescence intensity values before stimulation). In all experiments, all treatments were measured in multiple wells in parallel, and the mean ΔF/F values were used for analysis.

Male NMRI mice = assay: Place recognition test (Y-maze), reversal of scopolamine-induced amnesia; format: in vivo; settings: scopolamine 1 mg/kg i.p.
Procedure: In Vivo Pharmacology (Place Recognition Test)
Animals: Male NMRI mice (Toxicoop, Hungary)
Substances: Scopolamine was dissolved in saline and administered at 1 mg/kg dose i.p. Test compounds were administered 30 minutes before the acquisition trial (T1) and scopolamine after the acquisition trial at a volume of 0.1 ml/10 g.
Procedure: The task was carried out in a transparent plexiglass Y-maze (each arm has a length of 40 cm, an inner width of 11 cm and a height of 30 cm). Numerous visual cues were placed around the arms and were kept constant during the experiment. The test consisted of two trials (T1 and T2) separated by an intertrial interval of 30 minutes. Mice were placed in the starting arm of the maze at the beginning of each trial. In T1, one of the symmetric arms of the maze was closed (it will be novel in T2) and the animals were allowed to explore the maze for 5 minutes (acquisition phase). In T2, mice had free access to all three arms for 2 minutes (retrieval phase). The time spent with exploration in the novel and familiar arms during T2 was measured. Differences between the exploration times spent in the familiar vs. novel arms of the maze for each group were evaluated by MANOVA, followed by Duncan post hoc test.
Significant differences (^+p<0.05; ^++p<0.01; ^+++p<0.001) were observed between the exploration times spent in the novel vs. familiar arms of the maze.

Chain of human α7 nAchR (P36544 23-502): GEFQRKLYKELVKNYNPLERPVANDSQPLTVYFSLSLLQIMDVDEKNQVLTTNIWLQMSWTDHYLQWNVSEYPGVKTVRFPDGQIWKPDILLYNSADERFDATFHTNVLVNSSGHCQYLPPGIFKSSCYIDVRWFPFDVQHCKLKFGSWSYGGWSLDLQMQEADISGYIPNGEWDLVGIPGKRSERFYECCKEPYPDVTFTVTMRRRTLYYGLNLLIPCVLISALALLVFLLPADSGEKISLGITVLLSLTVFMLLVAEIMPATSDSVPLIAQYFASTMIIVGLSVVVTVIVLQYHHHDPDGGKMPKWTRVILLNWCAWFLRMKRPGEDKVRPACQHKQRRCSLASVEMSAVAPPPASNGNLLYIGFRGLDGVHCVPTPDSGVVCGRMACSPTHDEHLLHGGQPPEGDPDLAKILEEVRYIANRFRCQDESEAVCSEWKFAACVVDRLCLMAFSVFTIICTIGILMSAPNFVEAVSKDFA

EC50 (human α7 nAchR) [nM]	SMILES	reversal of the scopolamine-induced amnesia; significance of exploration time novel vs. familiar arm (Male NMRI mice; 1 mg/kg i.p.)	reversal of the scopolamine-induced amnesia; significance of exploration time novel vs. familiar arm (Male NMRI mice; 3 mg/kg i.p.)	reversal of the scopolamine-induced amnesia; significance of exploration time novel vs. familiar arm (Male NMRI mice; 10 mg/kg i.p.)
35	COc1ccc(C2=NS(=O)(=O)N(C(C)C)C(C(=O)Nc3cccc(C(F)(F)F)n3)=C2)cc1OC [Example 91]	+++ (+++p < 0.001)	+ (+p < 0.05)	+++ (+++p < 0.001)
340	CCCN1C(C(=O)Nc2cccc(C(F)(F)F)c2)=CC(c2ccc(OC)c(OC)c2)=NS1(=O)=O [Example 94]	+++ (+++p < 0.001)	+++ (+++p < 0.001)	+++ (+++p < 0.001)
1400	CCN1C(C(=O)Nc2ccnc(C(F)(F)F)c2)=CC([C@H]2CC[C@H](C(F)(F)F)CC2)=NS1(=O)=O [Example 88]			
580	CC(C)N1C(C(=O)Nc2cccc(F)n2)=CC(C2CCC(F)(F)CC2)=NS1(=O)=O [Example 127]			
80	O=C(Nc1cccc(C(F)(F)F)n1)C1=CC(C2CCC(F)(F)CC2)=NS(=O)(=O)N1CC1CC1 [Example 134]			

More lines, now with the values behind:

SMILES	EC50 (human α7 nAchR) [nM]	reversal of the scopolamine-induced amnesia; significance of exploration time novel vs. familiar arm (Male NMRI mice; 1 mg/kg i.p.)	reversal of the scopolamine-induced amnesia; significance of exploration time novel vs. familiar arm (Male NMRI mice; 3 mg/kg i.p.)	reversal of the scopolamine-induced amnesia; significance of exploration time novel vs. familiar arm (Male NMRI mice; 10 mg/kg i.p.)
CCN1C(C(=O)Nc2cccc(C)c2)=CC(c2ccc(OC)c(OC)c2)=NS1(=O)=O [Example 29]	340	+++ (+++p < 0.001)	++ (++p < 0.01)	+++ (+++p < 0.001)
CCN1C(C(=O)Nc2cccc(C(F)(F)F)n2)=CC(c2ccc(OC)c(OC)c2)=NS1(=O)=O [Example 33]	50	+++ (+++p < 0.001)	++ (++p < 0.01)	++ (++p < 0.01)
COc1ccc(C2=NS(=O)(=O)N(C)C(C(=O)Nc3cccc(C)c3)=C2)cc1OC [Example 1, 5-(3,4-dimethoxyphenyl)-2-methyl-N-(3-methylphenyl)-1,1-dioxo-2H-1λ^6,2,6-thiadiazine-3-carboxamide]	430	++ (++p < 0.01)	+++ (+++p < 0.001)	+++ (+++p < 0.001)
Cc1cccc(NC(=O)C2=CC(c3ccc4c(c3)c(C)nn4C)=NS(=O)(=O)N2C)c1 [Example 21]	230	++ (++p < 0.01)	+++ (+++p < 0.001)	++ (++p < 0.01)
CCN1C(C(=O)Nc2cccc(OC)c2)=CC(c2ccc(OC)c(C(F)(F)F)c2)=NS1(=O)=O [Example 37]	45	+++ (+++p < 0.001)	++ (++p < 0.01)	+++ (+++p < 0.001)
CCN1C(C(=O)Nc2cccc(C(F)(F)F)c2)=CC(c2ccc(C)c(OC)c2)=NS1(=O)=O [Example 49]	490			
CCN1C(C(=O)Nc2ccc(C)c(Cl)c2)=CC(c2ccc(OC)c(OC)c2)=NS1(=O)=O [Example 30]	440			
CN1C(C(=O)Nc2cccc(C(F)(F)F)n2)=CC(C2CCC(F)(F)CC2)=NS1(=O)=O [Example 55]	470			
COc1ccc(C2=NS(=O)(=O)N(C)C(C(=O)Nc3cccc(F)c3)=C2)cc1OC [Example 19]	1600			
CCN1C(C(=O)Nc2cccc(C(F)(F)F)n2)=CC(c2ccc(OC)c(C(F)(F)F)c2)=NS1(=O)=O [Example 87, 2-ethyl-5-[4-methoxy-3-(trifluoromethyl)phenyl]-1,1-dioxo-N-[6-(trifluoromethyl)pyridin-2-yl]-2H-1λ^6,2,6-thiadiazine-3-carboxamide]	10			
